The source of these data is patent publication US12151017B2, “Compositions and methods for hair regrowth” (Nutraceutical Wellness, Inc., priority 2015, dated 2024).

The test system of the assay is hair loss, Stage III Vertex/Stage IV MPHL. The experiment in a line: Example 1: single subject given the components cumulatively over 7 months. The format is in vivo, human. The conditions noted are these: taken before the implementations of the disclosure.

Procedure: During month 4, the subject was additionally given a daily 250 mg dose of Ashwagandha extracted from Withania somnifera, containing at least 8% withanolide glycosides and 32% oligosaccharides from the roots and leaves (Sensoril®, Natreon, New Brunswick, NJ) for stress associated with their condition and work. […] During month 5, the subject was additionally given a daily dose of Certified Organic saw palmetto extract Standardized 85-95% fatty acids (Valensa Eustis, FL) in the amount of 640 mg a day. […] During month 6, the subject added a 100 mg dose of tocotrienol/tocopherol complex comprising 78% tocotrienols and 22% tocopherols (Tocomax™ 20%, Carotech, Malaysia) a day. […] Lastly, in month 7, They were additionally given approximately 1000 mg of hydrolyzed marine collagen Types I and III (Youtheory, Tustin, CA) and 100 mg of hyaluronic acid (NOW Foods, Bloomingdale, IL).

For `O=C(O)CCCC[C@@H]1SC[C@@H]2NC(=O)N[C@@H]21` [biotin], the “hair outcome of earlier treatments (subject's history)” value is “did not result in a noticeable cessation of hair loss or new hair growth”. As for `CC(C)(C)NC(=O)[C@H]1CC[C@H]2[C@@H]3CC[C@H]4NC(=O)C=C[C@]4(C)[C@H]3CC[C@]12C` [finasteride], the “hair outcome of earlier treatments (subject's history)” value is “improvement was minimal”.
